Measured values taken from US11407788B2, “Prostate-specific membrane antigen (PSMA) targeting peptides” (THE CURATORS OF THE UNIVERSITY OF MISSOURI, priority 2016, dated 2022).

How the values were obtained:
[1] = tested on: LNCaP cells; experiment: Competitive inhibition of peptides and their corresponding phages; conditions: for competitive inhibition of peptide to its corresponding phage: peptides at 100 μM
Method: Competitive binding inhibition between selected phages and their encoded peptides was examined in this study. […] The bound phages were recovered and titered as described above.
It was first evaluated whether these phages bind to LNCaP cells via specific interaction with their encoding peptides. LNCaP cells were pre-incubated with the encoding peptides, followed by washing and incubation with the corresponding phages. The bound phages were then eluted and titered.

[2] = tested on: PSMA-positive prostate cancer C4-2 cell line; experiment: Apparent Kd of FAM-labeled peptides by flow cytometry in C4-2 cells; assay type: cell-based
[3] = tested on: PSMA-positive LNCaP cells; experiment: Apparent Kd of FAM-labeled peptides by flow cytometry in LNCaP cells; assay type: cell-based; conditions: 4° C., 1 h
[4] = target: PSMA (Homo sapiens, UniProt Q04609); conditions: Aggarwal et al. 2006; read-out: IC50 of inhibition of PSMA enzymatic activity; cited from earlier work
Chain of PSMA (Q04609 whole entry): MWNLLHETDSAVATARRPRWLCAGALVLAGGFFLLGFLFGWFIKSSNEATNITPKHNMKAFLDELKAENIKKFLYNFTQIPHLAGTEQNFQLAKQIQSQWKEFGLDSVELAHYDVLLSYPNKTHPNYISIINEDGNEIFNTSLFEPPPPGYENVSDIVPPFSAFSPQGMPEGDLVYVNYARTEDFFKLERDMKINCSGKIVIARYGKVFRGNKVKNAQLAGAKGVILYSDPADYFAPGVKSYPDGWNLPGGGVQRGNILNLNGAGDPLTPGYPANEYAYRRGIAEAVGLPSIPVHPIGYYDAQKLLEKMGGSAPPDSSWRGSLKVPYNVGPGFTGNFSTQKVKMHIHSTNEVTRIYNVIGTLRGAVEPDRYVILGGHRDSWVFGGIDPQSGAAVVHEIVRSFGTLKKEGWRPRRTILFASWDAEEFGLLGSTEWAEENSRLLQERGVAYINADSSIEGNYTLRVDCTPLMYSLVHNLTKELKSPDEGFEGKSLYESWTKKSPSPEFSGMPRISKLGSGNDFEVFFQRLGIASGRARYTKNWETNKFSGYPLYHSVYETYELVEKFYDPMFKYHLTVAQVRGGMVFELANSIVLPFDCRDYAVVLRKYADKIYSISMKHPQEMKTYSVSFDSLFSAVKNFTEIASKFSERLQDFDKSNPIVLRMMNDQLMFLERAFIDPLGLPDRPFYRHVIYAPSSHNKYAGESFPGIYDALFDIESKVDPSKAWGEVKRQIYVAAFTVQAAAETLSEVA

## QPGHAILAQHPT
[1]
  competitive inhibition of peptide to its corresponding phage: negligible

## SMAGEQISWALI
[1]
  competitive inhibition of peptide to its corresponding phage: negligible

## TGHLYPTRMEIQ [phage-derived peptide]
[1]
  competitive inhibition of peptide to its corresponding phage: relatively weaker competitive inhibition
[2]
  affinity to C4-2 cells compared to LNCaP cells: less affinity

## HSDNHYRPADKL [phage-derived peptide]
[1]
  competitive inhibition of peptide to its corresponding phage: negligible
[2]
  affinity to C4-2 cells compared to LNCaP cells: less affinity

## NRPDSAQFWLHH
[1]
  competitive inhibition of peptide to its corresponding phage: negligible
[1]; series of concentrations
  competitive inhibition of peptide to its corresponding phage at various concentrations: does not affect the binding

## YPTDWLWHGHNK
[1]
  competitive inhibition of peptide to its corresponding phage: negligible

## YVNSHSILGYTG
[1]
  competitive inhibition of peptide to its corresponding phage: relatively weaker competitive inhibition

## KYLAYPDSVHIW
[3]
  Kd: 14.4 µM

## WQPDTAHHWATL
[3]
  Kd: 23.6 µM
[4]
  IC50: 23 µM
